For 47 molecules, inhibition and IC50 results are on record in patent US20110092476A1, “Bicycloheteroaryl compounds as P2X7 modulators and uses thereof” (Renovis, Inc., priority 2006, published 2011).

Like-named read-outs stand apart in the source and are kept apart here.

The target of this assay is T1, P2X7 receptor (Homo sapiens, UniProt Q99572).
T1 construct: host or cells: THP-1 cells differentiated with LPS and IFN-γ
T1 sequence (Q99572 1-595): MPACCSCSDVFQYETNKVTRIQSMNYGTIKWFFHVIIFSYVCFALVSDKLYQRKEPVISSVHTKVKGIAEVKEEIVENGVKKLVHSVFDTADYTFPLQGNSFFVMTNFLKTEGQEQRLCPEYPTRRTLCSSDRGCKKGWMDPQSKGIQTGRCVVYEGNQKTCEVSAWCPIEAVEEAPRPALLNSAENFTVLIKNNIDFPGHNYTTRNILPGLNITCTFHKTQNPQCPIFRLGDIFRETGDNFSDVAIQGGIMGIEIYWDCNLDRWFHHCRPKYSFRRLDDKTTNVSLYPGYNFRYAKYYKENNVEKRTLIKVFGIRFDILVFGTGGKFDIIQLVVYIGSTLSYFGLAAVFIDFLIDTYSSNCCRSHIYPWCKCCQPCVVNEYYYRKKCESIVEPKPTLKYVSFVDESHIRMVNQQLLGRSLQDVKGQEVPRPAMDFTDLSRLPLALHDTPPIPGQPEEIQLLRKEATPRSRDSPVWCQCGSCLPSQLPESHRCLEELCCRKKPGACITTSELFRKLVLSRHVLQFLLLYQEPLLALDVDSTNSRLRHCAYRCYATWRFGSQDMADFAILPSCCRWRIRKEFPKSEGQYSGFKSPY
Briefly: IL-1β release assay in differentiated THP-1 cells stimulated with BzATP (Example 9). Format: cell-based. Conditions: BzATP 250 uM; for inhibition at 0.3 µM / inhibition at 0.1 µM: differentiated THP-1 cells, read-out: IL-1β % Inhib. @ 0.3 or 0.1 uM. Summed up: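 THP-1 cells differentiated 16 h with 100 ng/mL LPS and 100 ng/mL IFN-γ, primed 2 h with fresh LPS, pretreated 30 min with compound, then stimulated 45 min with 250 uM BzATP (final). Supernatant IL-1β measured by ELISA; background-adjusted percent inhibition fitted to a four-parameter logistic for IC50.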

Turning to `CC(C)[C@H](CO)n1ccc2c(NC(=O)[C@H](C)c3ccc(Cl)cc3)cccc2c1=O` [Compound 273, (R)-2-(4-Chloro-phenyl)-N—[(R)-2-(1-hydroxymethyl-2-methyl-propyl)-1-oxo-1,2-dihydro-isoquinolin-5-yl]-propionamide], the inhibition at 0.3 µM (0.3 μM compound, "+" symbols) is over 76%.
In the case of `CC(C(=O)Nc1cccc2c(=O)n(C[C@H]3CCCN3)ccc12)c1ccc(Cl)cc1` (stereo partly drawn) [Compound 242], the inhibition at 0.3 µM (0.3 μM compound, "+" symbols) lay within 26 to 50%. Besides, the IC50 (commonly the concentration that gives 50% inhibition) (THP-1 cells, IL-1β by ELISA) came to 356 nM.
Consider `Cc1ccccc1CC(=O)Nc1cccc2c(=O)n(CC(C)(C)O)ccc12` [Compound 211], for which the inhibition at 0.1 µM (0.1 μM compound, "*" symbols) was in the range of 0 to 25%.
As to `CC(C)(CO)n1ccc2c(NC(=O)Cc3ccc(Cl)c(F)c3)cccc2c1=O` [Compound 373], under “0.3 μM compound, "+" symbols”, the inhibition at 0.3 µM fell in the range of 51 to 75%.
`Cc1ccc(Cl)cc1C(=O)Nc1cccc2c(=O)n(CC(C)O)ccc12` (stereo not drawn) [Compound 179]: under “0.1 μM compound (symbols *)”, the inhibition at 0.1 µM was 0 to 25%.
On to `COc1ccccc1CC(=O)Nc1cccc2c(=O)n(CC(C)O)ccc12` (stereo not drawn) [Compound 155], for which, under “0.1 μM compound (symbols *)”, the inhibition at 0.1 µM lay within 0 to 25%.
Turning to `C[C@@H](C(N)=O)n1ccc2c(NC(=O)Cc3ccc(F)c(Cl)c3)cccc2c1=O` [Compound 346], where the note is “0.3 μM compound, "+" symbols”, the inhibition at 0.3 µM is over 76%.
The same measure, in the same setting: then `NCC(CCl)Cn1ccc2c(NC(=O)Cc3ccc(Cl)c(Cl)c3)cccc2c1=O` (stereo not drawn) [Compound 259], with 51 to 75%.
As to `COc1cc(CC(=O)Nc2cccc3c(=O)n(C(C)CO)ccc23)cc(OC)c1` (stereo not drawn) [Compound 114], the inhibition at 0.1 µM (0.1 μM compound (symbols *)) was in the range of 0 to 25%.
As to `C[C@@H](CO)n1ccc2c(NC(=O)Cc3ccc(Cl)cc3F)cccc2c1=O` [Compound 328], under “0.3 μM compound, "+" symbols”, the inhibition at 0.3 µM was in the range of 51 to 75%.
As for `Cc1ccc(C(=O)Nc2cccc3c(=O)n(CC(C)O)ccc23)c(C)c1` (stereo not drawn) [Compound 141], the inhibition at 0.1 µM (0.1 μM compound (symbols *)) lay in the range of 0 to 25%.
Take `C[C@@H](C(=O)Nc1cccc2c(=O)n([C@@H](C)CO)ccc12)c1ccc(Cl)c(Cl)c1` [Compound 317]: the inhibition at 0.3 µM (0.3 μM compound, "+" symbols) is over 76%.
As for `Cc1cccc(C(=O)Nc2cccc3c(=O)n(C(C)CO)ccc23)c1C` (stereo not drawn) [Compound 98], the inhibition at 0.1 µM (0.1 μM compound (symbols *)) is 0 to 25%.
For the molecule `CC(C(=O)Nc1cccc2c(=O)n([C@@H](C)C(N)=O)ccc12)c1cccc(C(F)(F)F)c1F` (stereo partly drawn) [Compound 355], under “0.3 μM compound, "+" symbols”, the inhibition at 0.3 µM is over 76%.
Still for that read-out and setting: then `CC(C(=O)Nc1cccc2c(=O)n([C@H](CO)C(N)=O)ccc12)c1ccc(Cl)cc1` (stereo partly drawn) [Compound 252, (R)-2-{5-[2-(4-Chloro-phenyl)-propionylamino]-1-oxo-1H-isoquinolin-2-yl}-3-hydroxy-propionamide], with 51 to 75%; and `O=C(Cc1ccc(F)c(Cl)c1)Nc1cccc2c(=O)n(CCO)ccc12` [Compound 341], with over 76%.
Regarding `COc1ccc(OC)c(CC(=O)Nc2cccc3c(=O)n(CC4(O)CCCCC4)ccc23)c1` [Compound 30], the inhibition at 0.3 µM (0.3 μM compound (symbols +)) was in the range of 0 to 25%.
Same read-out and setting: next, `O=C(Cc1ccccc1)Nc1cccc2c(=O)n(CCO)ccc12` [Compound 76]: 0 to 25%.
On to `Cc1cccc(C(=O)Nc2cccc3c(=O)n(CC(C)O)ccc23)c1Cl` (stereo not drawn) [Compound 182], for which, under “0.1 μM compound (symbols *)”, the inhibition at 0.1 µM lay within 0 to 25%.
Turning to `CC(O)Cn1ccc2c(NC(=O)c3ccc(C(C)(C)C)cc3)cccc2c1=O` (stereo not drawn) [Compound 147], the inhibition at 0.1 µM (0.1 μM compound (symbols *)) lay in the range of 0 to 25%.
As to `CC(C)(CO)n1ccc2c(NC(=O)Cc3ccc(C(F)(F)F)cc3F)cccc2c1=O` [Compound 370], for the setting “0.3 μM compound, "+" symbols”, the inhibition at 0.3 µM was over 76%.
Turning to `Cc1cc(C(=O)Nc2cccc3c(=O)n(CC4(O)CCCCC4)ccc23)ccc1F` [Compound 48], under “0.3 μM compound (symbols +)”, the inhibition at 0.3 µM was 0 to 25%.
As to `CC(C)[C@H](C(=O)NC1CC1)n1ccc2c(NC(=O)[C@H](C)c3ccc(Cl)cc3)cccc2c1=O` [Compound 282], the inhibition at 0.3 µM (0.3 μM compound, "+" symbols) was over 76%.
Take `Cc1ccc(C(=O)Nc2cccc3c(=O)n(CC(C)O)ccc23)cc1Cl` (stereo not drawn) [Compound 168]: the inhibition at 0.1 µM (0.1 μM compound (symbols *)) fell in the range of 0 to 25%.
In the case of `CC(C)C(C(=O)Nc1cccc2c(=O)n(CCO)ccc12)c1ccc(Cl)cc1` (stereo not drawn) [Compound 78], under “0.3 μM compound (symbols +)”, the inhibition at 0.3 µM was in the range of 0 to 25%.
In the case of `CC(O)Cn1ccc2c(NC(=O)Cc3cccc4ccccc34)cccc2c1=O` (stereo not drawn) [Compound 151], the inhibition at 0.1 µM (0.1 μM compound (symbols *)) fell in the range of 0 to 25%.
As for `COc1ccc(CC(=O)Nc2cccc3c(=O)n(CCO)ccc23)cc1` [Compound 2], the inhibition at 0.3 µM (0.3 μM compound (symbols +)) lay in the range of 0 to 25%.
On to `COc1c(C)cc(C(=O)Nc2cccc3c(=O)n(CC(C)O)ccc23)cc1C` (stereo not drawn) [Compound 167], for which the inhibition at 0.1 µM (0.1 μM compound (symbols *)) was 0 to 25%.
Same read-out and setting: then `Cc1ccc(Cl)c(C(=O)Nc2cccc3c(=O)n(CC(C)O)ccc23)c1` (stereo not drawn) [Compound 178], with 0 to 25%.
As to `COc1ccc(C(=O)Nc2cccc3c(=O)n(CC(C)(C)O)ccc23)cc1C` [Compound 227], under “0.1 μM compound, "*" symbols”, the inhibition at 0.1 µM is 0 to 25%.
For `C[C@H](C(N)=O)n1ccc2c(NC(=O)Cc3ccccc3Cl)cccc2c1=O` [Compound 260], where the note is “0.3 μM compound, "+" symbols”, the inhibition at 0.3 µM lay within 0 to 25%.
Same read-out and setting: next, `C[C@H](C(N)=O)n1ccc2c(NC(=O)Cc3cccc(C#N)c3)cccc2c1=O` [Compound 288]: 0 to 25%.
`C[C@H](C(=O)Nc1c(Cl)ccc2c(=O)n([C@H](C)C(N)=O)ccc12)c1ccc(Cl)cc1` [Compound 340]: the inhibition at 0.3 µM (0.3 μM compound, "+" symbols) was over 76%.
As to `CC(C)(O)Cn1ccc2c(NC(=O)Cc3csc4ccccc34)cccc2c1=O` [Compound 224], the inhibition at 0.1 µM (0.1 μM compound, "*" symbols) lay within 26 to 50%.
As to `CC(C)C[C@H](CO)n1ccc2c(NC(=O)Cc3ccc(Cl)c(C(F)(F)F)c3)cccc2c1=O` [Compound 280], the inhibition at 0.3 µM (0.3 μM compound, "+" symbols) was over 76%.
Regarding `CC(C)(O)Cn1ccc2c(NC(=O)c3ccccc3Cl)cccc2c1=O` [Compound 197], the inhibition at 0.1 µM (0.1 μM compound, "*" symbols) fell in the range of 51 to 75%.
For `COc1cccc(CCC(=O)Nc2cccc3c(=O)n(CC4(O)CCCCC4)ccc23)c1` [Compound 10], the inhibition at 0.1 µM (0.1 μM compound (symbols *)) was in the range of 0 to 25%.
As for `C[C@H](C(=O)Nc1cccc2c(=O)n([C@H](C)C(=O)O)ccc12)c1ccc(Cl)cc1` [Compound 322, (R)-2-{5-[(S)-2-(4-Chloro-phenyl)-propionylamino]-1-oxo-1H-isoquinolin-2-yl}-propionic acid], the inhibition at 0.3 µM (0.3 μM compound, "+" symbols) fell in the range of 26 to 50%.
Still for that read-out and setting: then `NCC(CCl)Cn1ccc2c(NC(=O)Cc3ccc(Cl)c(C(F)(F)F)c3)cccc2c1=O` (stereo not drawn) [Compound 258, N-[2-(3-Amino-2-chloromethyl-propyl)-1-oxo-1,2-dihydro-isoquinolin-5-yl]-2-(4-chloro-3-trifluoromethyl-phenyl)-acetamide], with over 76%; and `O=C(Cc1ccc(Cl)c(Cl)c1)Nc1c(Cl)ccc2c(=O)n(CCO)ccc12` [Compound 248], with 0 to 25%; and `C[C@H](C(N)=O)n1ccc2c(NC(=O)Cc3ccc(F)c(F)c3)cccc2c1=O` [Compound 303], with over 76%.
On the same count and under the same terms, next, `C[C@@H](C(N)=O)n1ccc2c(NC(=O)Cc3ccc(Cl)c(F)c3)cccc2c1=O` [Compound 352]: over 76%.
In the case of `O=C(Cc1ccc2c(c1)OCO2)Nc1cccc2c(=O)n(CC3(O)CCCCC3)ccc12` [Compound 38], the inhibition at 0.3 µM (0.3 μM compound (symbols +)) fell in the range of 0 to 25%.
As to `CC(C)(O)Cn1ccc2c(NC(=O)Cc3ccc4c(c3)OCO4)cccc2c1=O` [Compound 218], the inhibition at 0.1 µM (0.1 μM compound, "*" symbols) is 0 to 25%.
Take `C[C@H](C(N)=O)n1ccc2c(NC(=O)Cc3cc(F)c(F)cc3F)cccc2c1=O` [Compound 305]: the inhibition at 0.3 µM (0.3 μM compound, "+" symbols) was over 76%.
In the case of `O=C(Nc1cccc2c(=O)n(CC3(O)CCCCC3)ccc12)c1ccc(-c2ccccc2)cc1` [Compound 22], the inhibition at 0.1 µM (0.1 μM compound (symbols *)) is 0 to 25%.
With `O=C(Nc1cccc2c(=O)n(CC3(O)CCCCC3)ccc12)c1cc2ccccc2o1` [Compound 37], the inhibition at 0.3 µM (0.3 μM compound (symbols +)) lay within 0 to 25%.
